Pest or weed control data for 16 molecules are collected here from patent publication US10251394B2, “Molecules having pesticidal utility, and intermediates, compositions, and processes, related thereto” (Dow AgroSciences LLC, priority 2016, dated 2019).

The structures appear in SMILES notation.

In assay [1] the test system is Cabbage Looper (Trichoplusia ni). Briefly: Bioassay on Cabbage Looper (CL), 128-well diet tray assay. It is filed as in vivo. The conditions noted are these: Cabbage Looper, Table ABC, read-out: CL rating. The gist of the method:
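Mortality after five to seven days at 25° C (14:10 photoperiod), averaged over eight wells per compound. Diet in each well carried 50 μg/cm^2 of dried test molecule and received one to five second-instar larvae.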

For assay [2], the system named is Beet Armyworm (Spodoptera exigua). Briefly: Bioassay on Beet Armyworm (BAW), 128-well diet tray assay. It is filed as in vivo. The conditions noted are these: Beet Armyworm, Table ABC, read-out: BAW rating. The gist of the method:
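Percent mortality, averaged over eight wells, was scored after five to seven days at 25° C under 14:10 light-dark. Each well's diet carried 50 μg/cm^2 of test molecule applied in acetone-water (90:10) and dried before one to five second-instar larvae were added.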

With `CCC(F)(F)C(/C=C(\F)c1ccc(C(=O)NC2(C(=O)NCC(F)(F)F)CC2)c(C(F)(F)F)c1)c1cc(Cl)c(Cl)c(Cl)c1` (centres unmarked) [F88, (Z)-4-(1,4,4-Trifluoro-3-(3,4,5-trichlorophenyl)hex-1-en-1-yl)-N-(1-((2,2,2-trifluoroethyl)carbamoyl)cyclopropyl)-2-(trifluoromethyl)benzamide], the pest or weed control at 50 µg/cm2 in assay [1] and in assay [2] was 50 to 100% throughout.
On to `O=C(NC1(C(=O)NCCCC(F)(F)F)CC1)c1ccc(/C(F)=C/C(c2cc(Cl)c(Cl)c(Cl)c2)C(F)(F)F)cc1C(F)(F)F` (centres unmarked) [F89, (Z)-4-(1,4,4,4-Tetrafluoro-3-(3,4,5-trichlorophenyl)but-1-en-1-yl)-N-(1-((4,4,4-trifluorobutyl)carbamoyl)cyclopropyl)-2-(trifluoromethyl)benzamide], for which the pest or weed control at 50 µg/cm2 in assay [1] and in assay [2] was 50 to 100% in each case.
As to `O=C(NC1(C(=O)NCCC(F)(F)F)CC1)c1ccc(/C(F)=C/C(c2cc(Cl)c(Cl)c(Cl)c2)C(F)(F)F)cc1C(F)(F)F` (centres unmarked) [F90, (Z)-4-(1,4,4,4-Tetrafluoro-3-(3,4,5-trichlorophenyl)but-1-en-1-yl)-2-(trifluoromethyl)-N-(1-((3,3,3-trifluoropropyl)carbamoyl)cyclopropyl)benzamide], the pest or weed control at 50 µg/cm2 in assay [1] and in assay [2] was 50 to 100% each time.
Consider `CC(C)CCNC(=O)C1(NC(=O)c2ccc(/C(F)=C/C(c3cc(Cl)c(Cl)c(Cl)c3)C(F)(F)F)cc2C(F)(F)F)CC1` (centres unmarked) [F91, (Z)—N-(1-(Isopentylcarbamoyl)cyclopropyl)-4-(1,4,4,4-tetrafluoro-3-(3,4,5-trichlorophenyl)but-1-en-1-yl)-2-(trifluoromethyl)benzamide], for which the pest or weed control at 50 µg/cm2 in assay [1] and in assay [2] was 50 to 100% each time.
As for `CC(F)(F)CNC(=O)C1(NC(=O)c2ccc(/C(F)=C/C(c3cc(Cl)c(Cl)c(Cl)c3)C(F)(F)F)cc2C(F)(F)F)CC1` (centres unmarked) [F92, (Z)—N-(1-((2,2-Difluoropropyl)carbamoyl)cyclopropyl)-4-(1,4,4,4-tetrafluoro-3-(3,4,5-trichlorophenyl)but-1-en-1-yl)-2-(trifluoromethyl)benzamide], the pest or weed control at 50 µg/cm2 in assay [1] and in assay [2] was 50 to 100% throughout.
For `O=C(NC1(C(=O)NCC2CCC2)CC1)c1ccc(/C(F)=C/C(c2cc(Cl)c(Cl)c(Cl)c2)C(F)(F)F)cc1C(F)(F)F` (centres unmarked) [F93, (Z)—N-(1-((Cyclobutylmethyl)carbamoyl)cyclopropyl)-4-(1,4,4,4-tetrafluoro-3-(3,4,5-trichlorophenyl)but-1-en-1-yl)-2-(trifluoromethyl)benzamide], the pest or weed control at 50 µg/cm2 in assay [1] and in assay [2] was 50 to 100% in each case.
`C#CCNC(=O)C1(NC(=O)c2ccc(/C(F)=C/C(c3cc(Cl)c(Cl)c(Cl)c3)C(F)(F)F)cc2C(F)(F)F)CC1` (centres unmarked) [F94, (Z)—N-(1-(Prop-2-yn-1-ylcarbamoyl)cyclopropyl)-4-(1,4,4,4-tetrafluoro-3-(3,4,5-trichlorophenyl)but-1-en-1-yl)-2-(trifluoromethyl)benzamide]: the pest or weed control at 50 µg/cm2 in assay [1] and in assay [2] was 50 to 100% throughout.
`O=C(NC1(C(=O)NCC(F)F)CC1)c1ccc(/C(F)=C/C(c2cc(Cl)c(Cl)c(Cl)c2)C(F)(F)F)cc1C(F)(F)F` (centres unmarked) [F95, (Z)—N-(1-((2,2-Difluoroethyl)carbamoyl)cyclopropyl)-4-(1,4,4,4-tetrafluoro-3-(3,4,5-trichlorophenyl)but-1-en-1-yl)-2-(trifluoromethyl)benzamide]: the pest or weed control at 50 µg/cm2 in assay [1] and in assay [2] was 50 to 100% throughout.
As to `CN(CC(F)(F)F)C(=O)C1(NC(=O)c2ccc(/C(F)=C/C(c3cc(Cl)c(Cl)c(Cl)c3)C(F)(F)F)cc2C(F)(F)F)CC1` (centres unmarked) [F96, (Z)—N-(1-(Methyl(2,2,2-trifluoroethyl)carbamoyl)cyclopropyl)-4-(1,4,4,4-tetrafluoro-3-(3,4,5-trichlorophenyl)but-1-en-1-yl)-2-(trifluoromethyl)benzamide], the pest or weed control at 50 µg/cm2 in assay [1] and in assay [2] was 50 to 100% each time.
For `CN(CC(F)(F)F)C(=O)C1(NC(=O)c2ccc(/C(F)=C/C(c3cc(Cl)c(Cl)c(Cl)c3)C(F)(F)F)cc2Cl)CC1` (centres unmarked) [F97, (Z)-2-Chloro-N-(1-(methyl(2,2,2-trifluoroethyl)carbamoyl)cyclopropyl)-4-(1,4,4,4-tetrafluoro-3-(3,4,5-trichlorophenyl)but-1-en-1-yl)benzamide], the pest or weed control at 50 µg/cm2 in assay [1] and in assay [2] was 50 to 100% throughout.
For `CC[C@@H](NC(=O)c1ccc(/C(F)=C/C(c2cc(Cl)c(Cl)c(Cl)c2)C(F)(F)F)cc1C(F)(F)F)C(=O)NCC(F)(F)F` (stereo partly drawn) [F98, N—((R)-1-Oxo-1-((2,2,2-trifluoroethyl)amino)butan-2-yl)-4-((Z)-1,4,4,4-tetrafluoro-3-(3,4,5-trichlorophenyl)but-1-en-1-yl)-2-(trifluoromethyl)benzamide], the pest or weed control at 50 µg/cm2 in assay [1] and in assay [2] was 50 to 100% each time.
For the molecule `CC[C@@H](NC(=O)c1ccc(/C(F)=C/C(c2cc(Cl)c(Cl)c(Cl)c2)C(F)(F)F)cc1Cl)C(=O)NCC(F)(F)F` (stereo partly drawn) [F100, 2-Chloro-N—((R)-1-oxo-1-((2,2,2-trifluoroethyl)amino)butan-2-yl)-4-((Z)-1,4,4,4-tetrafluoro-3-(3,4,5-trichlorophenyl)but-1-en-1-yl)benzamide], the pest or weed control at 50 µg/cm2 in assay [1] and in assay [2] was 50 to 100% in each case.
As for `O=C(NC1(C(=O)NC2CC(F)(F)C2)CC1)c1ccc(/C(F)=C/C(c2cc(Cl)c(Cl)c(Cl)c2)C(F)(F)F)cc1C(F)(F)F` (centres unmarked) [F101, (Z)—N-(1-((3,3-Difluorocyclobutyl)carbamoyl)cyclopropyl)-4-(1,4,4,4-tetrafluoro-3-(3,4,5-trichlorophenyl)but-1-en-1-yl)-2-(trifluoromethyl)benzamide], the pest or weed control at 50 µg/cm2 in assay [1] and in assay [2] was 50 to 100% throughout.
As for `O=C(NC1CCCN(CC(F)(F)F)C1=O)c1ccc(/C(F)=C/C(c2cc(Cl)c(Cl)c(Cl)c2)C(F)(F)F)cc1C(F)(F)F` (centres unmarked) [F104, (Z)—N-(2-Oxo-1-(2,2,2-trifluoroethyl)piperidin-3-yl)-4-(1,4,4,4-tetrafluoro-3-(3,4,5-trichlorophenyl)but-1-en-1-yl)-2-(trifluoromethyl)benzamide], the pest or weed control at 50 µg/cm2 in assay [1] and in assay [2] was 50 to 100% throughout.
In the case of `C[C@@H](NC(=O)c1ccc(/C(F)=C/C(c2cc(Cl)cc(Cl)c2)C(F)(F)F)cc1C(F)(F)F)C(=O)NCC(F)(F)F` (stereo partly drawn) [F105, 4-((Z)-3-(3,5-Dichlorophenyl)-1,4,4,4-tetrafluorobut-1-en-1-yl)-N—((R)-1-oxo-1-((2,2,2-trifluoroethyl)amino)propan-2-yl)-2-(trifluoromethyl)benzamide], the pest or weed control at 50 µg/cm2 in assay [1] and in assay [2] was 50 to 100% in each case.
For `O=C(N[C@@H]1CON(CC(F)(F)F)C1=O)c1ccc(/C(F)=C/C(c2cc(Cl)c(Cl)c(Cl)c2)C(F)(F)F)cc1C(F)(F)F` (stereo partly drawn) [F106, N—((R)-3-Oxo-2-(2,2,2-trifluoroethyl)isoxazolidin-4-yl)-4-((Z)-1,4,4,4-tetrafluoro-3-(3,4,5-trichlorophenyl)but-1-en-1-yl)-2-(trifluoromethyl)benzamide], the pest or weed control at 50 µg/cm2 in assay [1] and in assay [2] was 50 to 100% each time.
